For series [1], the target named is T1, Serine/threonine-protein kinase B-raf (Homo sapiens, UniProt P15056, V600E). Put plainly: Inhibition of BRAF V600E mutant in human HT-29 cells assessed as phosphorylation of MEK. It is filed as cell-based.
Another series is filed under the species Homo sapiens. Kind of series: Selectivity factor, ratio of IC50 for VEGFR2 (unknown origin) to IC50 for N-terminal FLAG-tagged recombinant BRAF-V600E (unknown origin) expressed in baculovirus system.
For the next series, the system named is Mus musculus. Kind of series: AUC (0 to 8 hrs) in mouse at 10 mg/kg, po. Type of series: ADME, organism-based, Blood. Also noted: time < 8 hr, dose 10 mg/kg, route oral. To be noted: in vivo.
Series [2] addresses T2, Vascular endothelial growth factor receptor 2 (Homo sapiens, UniProt P35968). Put plainly: Inhibition of VEGFR2 (unknown origin).
Series [3] addresses T1, Serine/threonine-protein kinase B-raf. Kind of series: Inhibition of BRAF V600E mutant (unknown origin).
In series [4] the target is T2, Vascular endothelial growth factor receptor 2. Kind of series: Inhibition of VEGFR2 (unknown origin) using biotinylated poly-GluTyr (4:1) as substrate pretreated for 5 mins before substrate addition measured after overnight incubation.
In series [5] the target is T1, Serine/threonine-protein kinase B-raf. Kind of series: Inhibition of N-terminal FLAG-tagged recombinant BRAF V600E mutant (unknown origin) expressed in baculovirus system preincubated for 10 mins before substrate addition measured after 20 mins by scintillation counting.

T2 sequence (P35968 whole entry): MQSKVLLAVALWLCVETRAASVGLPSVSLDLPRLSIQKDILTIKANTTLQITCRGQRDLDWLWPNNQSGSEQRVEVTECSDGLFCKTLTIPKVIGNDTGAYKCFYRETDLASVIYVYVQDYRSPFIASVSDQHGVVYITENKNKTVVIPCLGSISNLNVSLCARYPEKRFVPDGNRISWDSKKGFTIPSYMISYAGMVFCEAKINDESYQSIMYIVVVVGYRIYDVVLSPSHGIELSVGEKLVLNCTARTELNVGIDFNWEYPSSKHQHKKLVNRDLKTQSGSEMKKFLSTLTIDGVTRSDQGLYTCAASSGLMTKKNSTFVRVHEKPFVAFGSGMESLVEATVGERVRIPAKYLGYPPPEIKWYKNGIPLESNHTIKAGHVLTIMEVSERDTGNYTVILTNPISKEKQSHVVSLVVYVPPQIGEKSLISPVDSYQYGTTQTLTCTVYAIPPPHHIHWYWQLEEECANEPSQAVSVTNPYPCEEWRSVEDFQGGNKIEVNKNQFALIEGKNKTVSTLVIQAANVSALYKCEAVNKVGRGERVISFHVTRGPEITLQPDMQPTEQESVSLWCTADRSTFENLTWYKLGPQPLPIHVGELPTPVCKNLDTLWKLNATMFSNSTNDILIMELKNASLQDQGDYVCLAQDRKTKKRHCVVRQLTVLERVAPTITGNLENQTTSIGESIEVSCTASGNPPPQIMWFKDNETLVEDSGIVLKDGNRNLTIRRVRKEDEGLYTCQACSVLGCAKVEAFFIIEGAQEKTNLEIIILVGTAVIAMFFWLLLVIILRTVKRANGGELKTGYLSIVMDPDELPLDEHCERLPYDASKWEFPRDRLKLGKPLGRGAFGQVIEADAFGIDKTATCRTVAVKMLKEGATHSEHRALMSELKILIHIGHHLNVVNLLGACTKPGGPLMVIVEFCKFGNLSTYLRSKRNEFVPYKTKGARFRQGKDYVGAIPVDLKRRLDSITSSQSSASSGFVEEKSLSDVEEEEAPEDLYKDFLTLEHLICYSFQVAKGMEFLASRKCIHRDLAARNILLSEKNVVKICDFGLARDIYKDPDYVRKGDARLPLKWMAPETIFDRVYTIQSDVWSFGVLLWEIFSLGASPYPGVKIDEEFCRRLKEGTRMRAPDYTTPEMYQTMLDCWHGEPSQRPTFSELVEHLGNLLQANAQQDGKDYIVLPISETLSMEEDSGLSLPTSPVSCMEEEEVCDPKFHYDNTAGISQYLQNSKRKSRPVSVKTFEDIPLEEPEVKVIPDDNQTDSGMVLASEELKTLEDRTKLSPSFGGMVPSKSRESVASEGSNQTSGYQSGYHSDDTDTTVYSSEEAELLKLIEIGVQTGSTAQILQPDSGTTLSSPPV
T1 sequence (P15056 2-766 V600E limits assumed): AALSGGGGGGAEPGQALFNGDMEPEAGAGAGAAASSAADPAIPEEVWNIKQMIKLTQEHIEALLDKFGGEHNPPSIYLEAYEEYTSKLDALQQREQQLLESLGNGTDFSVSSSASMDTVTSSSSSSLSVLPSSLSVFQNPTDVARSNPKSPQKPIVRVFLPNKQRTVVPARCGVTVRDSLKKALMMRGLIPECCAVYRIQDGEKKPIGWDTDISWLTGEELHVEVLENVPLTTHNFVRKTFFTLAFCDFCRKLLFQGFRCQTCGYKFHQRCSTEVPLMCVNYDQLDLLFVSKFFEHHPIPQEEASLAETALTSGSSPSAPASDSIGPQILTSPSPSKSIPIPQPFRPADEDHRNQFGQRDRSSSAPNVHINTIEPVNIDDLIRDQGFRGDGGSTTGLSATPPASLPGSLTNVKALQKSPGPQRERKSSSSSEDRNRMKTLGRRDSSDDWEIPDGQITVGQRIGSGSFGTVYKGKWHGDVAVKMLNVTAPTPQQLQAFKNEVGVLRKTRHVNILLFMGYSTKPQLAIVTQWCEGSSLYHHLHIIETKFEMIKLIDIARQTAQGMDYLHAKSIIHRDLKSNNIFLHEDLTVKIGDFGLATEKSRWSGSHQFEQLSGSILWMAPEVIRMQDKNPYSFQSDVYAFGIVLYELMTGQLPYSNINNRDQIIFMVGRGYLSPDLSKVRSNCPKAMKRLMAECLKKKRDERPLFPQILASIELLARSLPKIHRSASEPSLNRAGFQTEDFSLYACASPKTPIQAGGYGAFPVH

What is called IC50 is the midpoint of a concentration-inhibition curve. A word on the AUC: it is concentration integrated over time. Low readings indicate low exposure, high ones high exposure. As to `N#Cc1c(Oc2cccc(NC(=O)Nc3ccccc3C(F)(F)F)c2)ccc2nc(NC(=O)C3CC3)sc12`, in series [1], the IC50 is > 500 nM. In the series listed under Homo sapiens, the Ratio IC50 stood at 6.3. In addition, the AUC in the series on Mus musculus was 58 ng·h/mL.

Consider `N#Cc1c(Oc2cccc(NC(=O)Cc3ccccc3C(F)(F)F)c2)ccc2nc(NC(=O)C3CC3)sc12`, for which the half-maximal inhibitory concentration (IC50) in series [1] is > 500 nM. For the same molecule, the Ratio IC50 in the series filed under Homo sapiens stood at 7.1. Besides, in the series on Mus musculus, the AUC worked out at 255 ng·h/mL.

Consider `CC(C)(C#N)c1cccc(C(=O)Nc2cccc(Oc3ccc4nc(NC(=O)C5CC5)sc4c3)c2)c1`, for which the Ratio IC50 in the series listed under Homo sapiens was 0.56.

As to `N#CC1(c2cccc(C(=O)Nc3cc(Oc4ccc5nc(NC(=O)C6CC6)sc5n4)ccc3F)c2Cl)CC1`, the values for the 50% inhibitory concentration (IC50) in series [2] and in series [3] were 2.8 nM and 5.6 nM, respectively.

On to `N#Cc1c(Oc2ccc(F)c(NC(=O)Nc3ccc(C(F)(F)F)cc3)c2)ccc2nc(NC(=O)C3CC3)sc12`, for which the IC50 in series [1] is 81 nM. Moreover, the Ratio IC50 in the series filed under Homo sapiens was 25. In the series with Mus musculus, this molecule yielded an exposure (AUC) of 158 ng·h/mL.

For the molecule `CC(C)(C#N)c1cccc(C(=O)Nc2cccc(Oc3ccc4nc(NC(=O)C5CC5)sc4c3C(=O)O)c2)c1`, the Ratio IC50 in the series listed under Homo sapiens was found to be 0.051. Also, the figures for the 50% inhibitory concentration (IC50) in series [4] and in series [5] were 15 nM and 290 nM, respectively.

Regarding `N#Cc1c(Oc2ccc(F)c(NC(=O)Nc3cccc(C(F)(F)F)c3)c2)ccc2nc(NC(=O)C3CC3)sc12`, the half-maximal inhibitory concentration (IC50) in series [1] amounted to 22 nM. The Ratio IC50 in the series listed under Homo sapiens was 15.

As for `N#Cc1c(Oc2cccc(NC(=O)Cc3cccc(C(F)(F)F)c3)c2)ccc2nc(NC(=O)C3CC3)sc12`, the IC50 in series [1] was found to be 360 nM. Besides, the Ratio IC50 in the series filed under Homo sapiens came to 120. Also, in the series on Mus musculus, the AUC turned out to be 3780 ng·h/mL.

In the case of `CC(C)(C#N)c1cccc(C(=O)Nc2cccc(Oc3ccc4nc(NC(=O)C5CC5)sc4c3C#N)c2)c1`, the IC50 in series [1] came out at 34 nM. In addition, the Ratio IC50 in the series filed under Homo sapiens is 5.8. In the series on Mus musculus, this molecule had an area under the curve (AUC) of 149 ng·h/mL.

On to `N#Cc1c(Oc2cccc(NC(=O)Nc3ccc(C(F)(F)F)cc3)c2)ccc2nc(NC(=O)C3CC3)sc12`, for which, in series [1], the 50% inhibitory concentration (IC50) was found to be 110 nM. Further, the Ratio IC50 in the series filed under Homo sapiens stood at 18. In the series with Mus musculus, this molecule gave an AUC of 431 ng·h/mL.

On to `N#Cc1c(Oc2cccc(NC(=O)Cc3ccc(C(F)(F)F)cc3)c2)ccc2nc(NC(=O)C3CC3)sc12`, for which, in series [1], the IC50 came to 320 nM. Further, the Ratio IC50 in the series listed under Homo sapiens was 20. The molecule further had an AUC with Mus musculus of 123 ng·h/mL.

In the case of `N#Cc1c(Oc2cccc(NC(=O)Nc3cccc(C(F)(F)F)c3)c2)ccc2nc(NC(=O)C3CC3)sc12`, the 50% inhibitory concentration (IC50) in series [1] was 75 nM; in series [4] it was 350 nM; in series [5] it was 18 nM. The Ratio IC50 in the series filed under Homo sapiens came out at 19. Further, in the series with Mus musculus, the area under the curve (AUC) is 99 ng·h/mL.

Regarding `CC(C)(C#N)c1cccc(C(=O)Nc2cccc(Oc3ccc4nc(NC(=O)C5CC5)sc4c3CO)c2)c1`, the IC50 in series [1] turned out to be 170 nM. Also, the Ratio IC50 in the series listed under Homo sapiens worked out at 0.31.

For `COC(=O)c1c(Oc2cccc(NC(=O)c3cccc(C(C)(C)C#N)c3)c2)ccc2nc(NC(=O)C3CC3)sc12`, the IC50 in series [1] stood at 24 nM. For the same molecule, in the series listed under Homo sapiens, the Ratio IC50 was found to be 2.8.

For the molecule `CC(C)(C#N)c1cccc(C(=O)Nc2cccc(Oc3ccc4nc(NC(=O)C5CC5)sc4c3[N+](=O)[O-])c2)c1`, in series [1], the IC50 is 29 nM. In addition, in the series filed under Homo sapiens, the Ratio IC50 came to 2.8.

(Values after ChEMBL document CHEMBL3124815, “Discovery of a selective kinase inhibitor (TAK-632) targeting pan-RAF inhibition: design, synthesis, and biological evaluation of C-7-substituted 1,3-benzothiazole derivatives” (J Med Chem, 2013).)
